Assay results reported in patent publication US6054435A, “6-O-substituted macrolides having antibacterial activity” (priority 1999, dated 2000).
Values after ≈ are worked out from the molar mass of the structure shown.

Experiments:
Experiment in all cases: in vitro antibacterial activity (MIC), agar dilution
Format in all cases: cell-based
[1] = tested on: Micrococcus luteus ATCC 9341; conditions: organism code OO; BHI agar, 35-37° C., 20 to 24 hours; unit assumed
Method: (§1) Representative compounds of the present invention were assayed in vitro for antibacterial activity as follows: Twelve petri dishes containing successive aqueous dilutions of the test compound mixed with 10 mL of sterilized Brain Heart Infusion (BHI) agar (Difco 0418-01-5) were prepared. Each plate was inoculated with 1:100 (or 1:10 for slow-growing strains, such as Micrococcus and Streptococcus) dilutions of up to 32 different microorganisms, using a Steers replicator block. […] In addition, a control plate, using BHI agar containing no test compound, was prepared and incubated at the beginning and end of each test.
(§2) An additional plate containing a compound having known susceptibility patterns for the organisms being tested and belonging to the same antibiotic class as the test compound was also prepared and incubated as a further control, as well as to provide test-to-test comparability.
(§3) After incubation, each plate was visually inspected. The minimum inhibitory concentration (MIC) was defined as the lowest concentration of drug yielding no growth, a slight haze, or sparsely isolated colonies on the inoculum spot as compared to the growth control.

[2] = tested on: Staphylococcus aureus A5177; conditions: organism code BB; BHI agar, 35-37° C., 20 to 24 hours; unit assumed
Method: as §1, §2, §3

[3] = tested on: Streptococcus Pneumonia ATCC6303; conditions: organism code XX; BHI agar, 35-37° C., 20 to 24 hours; unit assumed
Method: as §1, §2, §3

[4] = tested on: Staphylococcus aureus NCTC10649M; conditions: organism code EE; BHI agar, 35-37° C., 20 to 24 hours; unit assumed
Method: as §1, §2, §3

[5] = tested on: Staphylococcus aureus 1775; conditions: organism code GG; BHI agar, 35-37° C., 20 to 24 hours; unit assumed
Method: as §1, §2, §3

[6] = tested on: Streptococcus pyogenes PIU 2548; conditions: organism code NN; BHI agar, 35-37° C., 20 to 24 hours; unit assumed
Method: as §1, §2, §3

[7] = tested on: Enterococcus faecium ATCC 8043; conditions: organism code II; BHI agar, 35-37° C., 20 to 24 hours; unit assumed
Method: as §1, §2, §3

[8] = tested on: Staphylococcus aureus CMX 553; conditions: organism code FF; BHI agar, 35-37° C., 20 to 24 hours; unit assumed
Method: as §1, §2, §3

Escherichia coli SS = conditions: organism code RR; BHI agar, 35-37° C., 20 to 24 hours; unit assumed
Method: as §1, §2, §3

[9] = tested on: Staphylococcus aureus A-5278; conditions: organism code CC; BHI agar, 35-37° C., 20 to 24 hours; unit assumed
Method: as §1, §2, §3

[10] = tested on: Streptococcus agalactiae CMX 508; conditions: organism code KK; BHI agar, 35-37° C., 20 to 24 hours; unit assumed
Method: as §1, §2, §3

[11] = tested on: Micrococcus luteus ATCC 4698; conditions: organism code PP; BHI agar, 35-37° C., 20 to 24 hours; unit assumed
Method: as §1, §2, §3

Escherichia coli DC-2 = conditions: organism code SS; BHI agar, 35-37° C., 20 to 24 hours; unit assumed
Method: as §1, §2, §3

[12] = tested on: Streptococcus bovis A-5169; conditions: organism code JJ; BHI agar, 35-37° C., 20 to 24 hours; unit assumed
Method: as §1, §2, §3

[13] = tested on: Nocardia Asteroides ATCC9970; conditions: organism code VV; BHI agar, 35-37° C., 20 to 24 hours; unit assumed
Method: as §1, §2, §3

[14] = tested on: Streptococcus pyogenes EES61; conditions: organism code LL; BHI agar, 35-37° C., 20 to 24 hours; unit assumed
Method: as §1, §2, §3

[15] = tested on: Mycobacterium smegmatis ATCC 114; conditions: organism code UU; BHI agar, 35-37° C., 20 to 24 hours; unit assumed
Method: as §1, §2, §3

[16] = tested on: Staphylococcus aureus ATCC 6538P; conditions: organism code AA; BHI agar, 35-37° C., 20 to 24 hours; unit assumed
Method: as §1, §2, §3

Escherichia coli JUHL = conditions: organism code QQ; BHI agar, 35-37° C., 20 to 24 hours; unit assumed
Method: as §1, §2, §3

[17] = tested on: Staphylococcus epidermidis 3519; conditions: organism code HH; BHI agar, 35-37° C., 20 to 24 hours; unit assumed
Method: as §1, §2, §3

Candida albicans CCH 442 = conditions: organism code TT; BHI agar, 35-37° C., 20 to 24 hours; unit assumed
Method: as §1, §2, §3

[18] = tested on: Haemophilis Influenzae DILL AMP R; conditions: organism code WW; BHI agar, 35-37° C., 20 to 24 hours; unit assumed
Method: as §1, §2, §3

[19] = tested on: Streptococcus Pneumonia 5979; conditions: organism code ZZ; BHI agar, 35-37° C., 20 to 24 hours; unit assumed
Method: as §1, §2, §3

[20] = tested on: Streptococcus Pneumonia GYR 1171; conditions: organism code YY; BHI agar, 35-37° C., 20 to 24 hours; unit assumed
Method: as §1, §2, §3

[21] = tested on: Streptococcus pyogenes 930; conditions: organism code MM; BHI agar, 35-37° C., 20 to 24 hours; unit assumed
Method: as §1, §2, §3

[22] = tested on: Staphylococcus aureus CMX 642A; conditions: organism code DD; BHI agar, 35-37° C., 20 to 24 hours; unit assumed
Method: as §1, §2, §3

[23] = tested on: Streptococcus Pneumonia 5649; conditions: organism code ZZA; BHI agar, 35-37° C., 20 to 24 hours; unit assumed
Method: as §1, §2, §3

CC[C@H]1OC(=O)[C@H](C)C(=O)[C@H](C)[C@@H](O[C@@H]2O[C@H](C)C[C@H](N(C)C)[C@H]2O)[C@](C)(OC/C=C/c2cncc(-c3ccccc3)c2)C[C@@H](C)C(=O)[C@H](C)[C@H]2NC(=O)O[C@@]21C [Example 42]
MIC [1]: 0.02 µg/mL (≈ 0.0253 µM)
MIC [2]: 0.1 µg/mL (≈ 0.126 µM)
MIC [3]: 0.03 µg/mL (≈ 0.0379 µM)
MIC [4]: 0.2 µg/mL (≈ 0.253 µM)
MIC [5]: > 100 µg/mL
MIC [6]: 0.2 µg/mL (≈ 0.253 µM)
MIC [7]: 0.05 µg/mL (≈ 0.0631 µM)
MIC [8]: 0.1 µg/mL (≈ 0.126 µM)
MIC (Escherichia coli SS): 0.78 µg/mL (≈ 0.985 µM)
MIC [9]: > 100 µg/mL
MIC [10]: 0.02 µg/mL (≈ 0.0253 µM)
MIC [11]: 0.2 µg/mL (≈ 0.253 µM)
MIC (Escherichia coli DC-2): 50 µg/mL (≈ 63.1 µM)
MIC [12]: 0.02 µg/mL (≈ 0.0253 µM)
MIC [13]: 0.2 µg/mL (≈ 0.253 µM)
MIC [14]: 0.02 µg/mL (≈ 0.0253 µM)
MIC [15]: 0.39 µg/mL (≈ 0.492 µM)
MIC [16]: 0.1 µg/mL (≈ 0.126 µM)
MIC (Escherichia coli JUHL): 100 µg/mL (≈ 126 µM)
MIC [17]: 0.2 µg/mL (≈ 0.253 µM)
MIC (Candida albicans CCH 442): > 100 µg/mL
MIC [18]: 4 µg/mL (≈ 5.05 µM)
MIC [19]: 32 µg/mL (≈ 40.4 µM)
MIC [20]: 0.03 µg/mL (≈ 0.0379 µM)
MIC [21]: 50 µg/mL (≈ 63.1 µM)
MIC [22]: 0.2 µg/mL (≈ 0.253 µM)

CC[C@H]1OC(=O)[C@H](C)C(=O)[C@H](C)[C@@H](O[C@@H]2O[C@H](C)C[C@H](N(C)C)[C@H]2O)[C@](C)(OCC#Cc2ccc(-c3cccc(OC)c3)s2)C[C@@H](C)C(=O)[C@H](C)[C@H]2NC(=O)O[C@@]21C [Example 14]
MIC [1]: 0.01 µg/mL (≈ 0.0121 µM)
MIC [2]: 0.1 µg/mL (≈ 0.121 µM)
MIC [3]: 0.03 µg/mL (≈ 0.0364 µM)
MIC [4]: 0.1 µg/mL (≈ 0.121 µM)
MIC [5]: 50 µg/mL (≈ 60.6 µM)
MIC [23]: 0.25 µg/mL (≈ 0.303 µM)
MIC [6]: 0.1 µg/mL (≈ 0.121 µM)
MIC [8]: 0.1 µg/mL (≈ 0.121 µM)
MIC (Escherichia coli SS): 0.39 µg/mL (≈ 0.473 µM)
MIC [9]: > 100 µg/mL
MIC [10]: 0.01 µg/mL (≈ 0.0121 µM)
MIC [11]: 0.02 µg/mL (≈ 0.0242 µM)
MIC (Escherichia coli DC-2): > 100 µg/mL
MIC [12]: ≤ 0.005 µg/mL
MIC [13]: 0.1 µg/mL (≈ 0.121 µM)
MIC [14]: 0.01 µg/mL (≈ 0.0121 µM)
MIC [15]: 0.2 µg/mL (≈ 0.242 µM)
MIC [16]: 0.1 µg/mL (≈ 0.121 µM)
MIC (Escherichia coli JUHL): > 100 µg/mL
MIC [17]: 0.1 µg/mL (≈ 0.121 µM)
MIC (Candida albicans CCH 442): > 100 µg/mL
MIC [18]: 2 µg/mL (≈ 2.42 µM)
MIC [19]: 1 µg/mL (≈ 1.21 µM)
MIC [20]: 0.03 µg/mL (≈ 0.0364 µM)
MIC [21]: 1.56 µg/mL (≈ 1.89 µM)
MIC [22]: 0.1 µg/mL (≈ 0.121 µM)

CC[C@H]1OC(=O)[C@H](C)C(=O)[C@H](C)[C@@H](O[C@@H]2O[C@H](C)C[C@H](N(C)C)[C@H]2O)[C@](C)(OC/C=C/c2cncc(-c3cncnc3)c2)C[C@@H](C)C(=O)[C@H](C)[C@H]2NC(=O)O[C@@]21C [Example 45]
MIC [1]: 0.01 µg/mL (≈ 0.0126 µM)
MIC [2]: 0.05 µg/mL (≈ 0.063 µM)
MIC [3]: 0.008 µg/mL (≈ 0.0101 µM)
MIC [4]: 0.2 µg/mL (≈ 0.252 µM)
MIC [5]: > 100 µg/mL
MIC [6]: 0.39 µg/mL (≈ 0.491 µM)
MIC [7]: 0.05 µg/mL (≈ 0.063 µM)
MIC [8]: 0.05 µg/mL (≈ 0.063 µM)
MIC (Escherichia coli SS): 0.39 µg/mL (≈ 0.491 µM)
MIC [9]: > 100 µg/mL
MIC [10]: ≤ 0.005 µg/mL
MIC [11]: 0.1 µg/mL (≈ 0.126 µM)
MIC (Escherichia coli DC-2): 25 µg/mL (≈ 31.5 µM)
MIC [12]: ≤ 0.005 µg/mL
MIC [13]: 0.05 µg/mL (≈ 0.063 µM)
MIC [14]: ≤ 0.005 µg/mL
MIC [15]: 1.56 µg/mL (≈ 1.96 µM)
MIC [16]: 0.05 µg/mL (≈ 0.063 µM)
MIC (Escherichia coli JUHL): 50 µg/mL (≈ 63 µM)
MIC [17]: 0.1 µg/mL (≈ 0.126 µM)
MIC (Candida albicans CCH 442): > 100 µg/mL
MIC [18]: 2 µg/mL (≈ 2.52 µM)
MIC [19]: > 128 µg/mL
MIC [20]: ≤ 0.004 µg/mL
MIC [21]: 25 µg/mL (≈ 31.5 µM)
MIC [22]: 0.1 µg/mL (≈ 0.126 µM)
